Source: ChEMBL document CHEMBL1201862, “PubChem BioAssay data set” (2004)
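Cultured in 96-well plates, cells were exposed to test compound for 48 hours across five concentrations. Here, GI50 denotes the concentration required for 50% inhibition of growth.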 The source made the active and inactive calls. No stated cut-off is given here; in the data, active = GI50 up to about 1.1 µM and inactive = higher.

Legend:
Test in all cases: NCI anticancer screen, dose series, 48 h
TK-10 = test system: TK-10
UACC-257 = test system: UACC-257
UACC-62 = test system: UACC-62
SW-620 = test system: SW-620
CAKI-1 = test system: CAKI-1
COLO 205 = test system: COLO 205
786-0 = test system: 786-0
SK-MEL-28 = test system: SK-MEL-28
SN12C = test system: SN12C
K562 = test system: K562
SNB-75 = test system: SNB-75
LOX IMVI = test system: LOX IMVI
M14 = test system: M14
RXF 393 = test system: RXF 393
Malme-3M = test system: Malme-3M
HOP-62 = test system: HOP-62
MOLT-4 = test system: MOLT-4
SF-539 = test system: SF-539
HL-60 = test system: HL-60

Measured: GI50

Cc1ccc(S(=O)(=O)SCc2ccccc2CSS(=O)(=O)c2ccc(C)cc2)cc1
inactive: TK-10 > 100 µM | UACC-257 71.9 µM | UACC-62 15.8 µM | SW-620 17.1 µM | CAKI-1 22.9 µM | COLO 205 17 µM | 786-0 18.2 µM | SK-MEL-28 19.1 µM | SN12C 17.7 µM | K562 15.7 µM | SNB-75 57.7 µM | LOX IMVI 15.8 µM | M14 19.1 µM | RXF 393 15.7 µM | Malme-3M 24.2 µM | HOP-62 > 100 µM | MOLT-4 16 µM | SF-539 19.5 µM | HL-60 12.1 µM

N#CCc1ccc(C(C#N)/C(CCCC(=O)Nc2cccc([N+](=O)[O-])c2)=N/NC(N)=S)cc1 (stereo not given)
inactive: TK-10 > 100 µM | UACC-257 > 100 µM | UACC-62 44.1 µM | SW-620 > 100 µM | CAKI-1 > 100 µM | COLO 205 > 100 µM | 786-0 > 100 µM | SK-MEL-28 > 100 µM | SN12C > 100 µM | K562 81.7 µM | SNB-75 > 100 µM | LOX IMVI 63.1 µM | M14 > 100 µM | RXF 393 > 100 µM | Malme-3M > 100 µM | HOP-62 > 100 µM | MOLT-4 70.3 µM | SF-539 > 100 µM | HL-60 > 100 µM

CCCCN(CCCC)CC(C(C)=O)C(c1ccccc1)c1c(O)c2ccccc2oc1=O (stereo not given)
inactive: TK-10 > 100 µM | UACC-257 > 100 µM | UACC-62 > 100 µM | SW-620 > 100 µM | CAKI-1 > 100 µM | COLO 205 > 100 µM | 786-0 > 100 µM | SK-MEL-28 > 100 µM | SN12C > 100 µM | K562 > 100 µM | SNB-75 19.3 µM | LOX IMVI > 100 µM | M14 > 100 µM | RXF 393 84.7 µM | Malme-3M > 100 µM | HOP-62 > 100 µM | MOLT-4 > 100 µM | SF-539 > 100 µM | HL-60 > 100 µM

CCN(CC)C(=O)COc1ccc(Br)cc1Br
inactive: TK-10 > 100 µM | UACC-257 > 100 µM | UACC-62 38.8 µM | SW-620 > 100 µM | CAKI-1 > 100 µM | COLO 205 > 100 µM | 786-0 > 100 µM | SK-MEL-28 > 100 µM | SN12C > 100 µM | K562 > 100 µM | SNB-75 83.6 µM | LOX IMVI > 100 µM | M14 > 100 µM | RXF 393 > 100 µM | Malme-3M > 100 µM | HOP-62 > 100 µM | MOLT-4 > 100 µM | SF-539 > 100 µM | HL-60 83.9 µM

COc1cccc(NC(=O)C(=O)C(C(C)=O)c2nc3ccc(Cl)cc3nc2O)c1 (stereo not given)
inactive: TK-10 > 100 µM | UACC-257 > 100 µM | UACC-62 > 100 µM | SW-620 > 100 µM | CAKI-1 > 100 µM | COLO 205 > 100 µM | 786-0 > 100 µM | SK-MEL-28 > 100 µM | SN12C > 100 µM | K562 > 100 µM | SNB-75 54.7 µM | LOX IMVI > 100 µM | M14 > 100 µM | RXF 393 > 100 µM | Malme-3M > 100 µM | HOP-62 > 100 µM | MOLT-4 > 100 µM | SF-539 > 100 µM | HL-60 > 100 µM

COC(=O)C(C(=O)C(=O)Nc1ccc(C)cc1)c1nc2ccc([N+](=O)[O-])cc2nc1O (stereo not given)
inactive: TK-10 > 100 µM | UACC-257 > 100 µM | UACC-62 85.7 µM | SW-620 > 100 µM | CAKI-1 > 100 µM | COLO 205 53.5 µM | 786-0 > 100 µM | SK-MEL-28 > 100 µM | SN12C > 100 µM | K562 30.1 µM | SNB-75 > 100 µM | LOX IMVI > 100 µM | M14 > 100 µM | RXF 393 > 100 µM | Malme-3M > 100 µM | HOP-62 > 100 µM | MOLT-4 92.9 µM | SF-539 > 100 µM | HL-60 35.6 µM

Nc1ncnc2c1nnn2C1C=C(CO)C(O)C1O (stereo not given)
inactive: TK-10 > 92.5 µM | UACC-257 > 100 µM | UACC-62 > 100 µM | SW-620 29.4 µM | CAKI-1 74 µM | COLO 205 > 36 µM | 786-0 53.2 µM | SK-MEL-28 65.3 µM | SN12C 33 µM | K562 40.8 µM | SNB-75 30.9 µM | LOX IMVI 38.6 µM | M14 > 52.2 µM | RXF 393 > 77.1 µM | Malme-3M > 100 µM | HOP-62 > 92 µM | MOLT-4 > 100 µM | SF-539 > 85.3 µM | HL-60 12.1 µM

CC1(C)CCC[C@@]2(C)C1CCC1(C)C(CCc3ccoc3)/C(=C/OS(=O)(=O)O)CCC12 (stereo not given in full)
inactive: TK-10 > 100 µM | UACC-257 > 100 µM | UACC-62 > 100 µM | SW-620 54.3 µM | CAKI-1 > 100 µM | COLO 205 54.6 µM | 786-0 > 100 µM | SK-MEL-28 58.7 µM | SN12C > 100 µM | K562 31.2 µM | SNB-75 > 100 µM | LOX IMVI > 100 µM | M14 42.7 µM | RXF 393 61.9 µM | Malme-3M > 100 µM | HOP-62 > 100 µM | MOLT-4 23.6 µM | SF-539 > 100 µM | HL-60 37.1 µM

O=C(Cc1ccccc1)NN1C(=O)C(Cl)C1c1ccccc1Cl (stereo not given)
inactive: TK-10 > 100 µM | UACC-257 > 70.6 µM | UACC-62 68.5 µM | SW-620 34.4 µM | CAKI-1 > 60.3 µM | COLO 205 > 100 µM | 786-0 71.8 µM | SK-MEL-28 > 100 µM | SN12C > 75.9 µM | K562 33.7 µM | SNB-75 51.3 µM | LOX IMVI 24.3 µM | M14 > 100 µM | RXF 393 48.8 µM | Malme-3M > 100 µM | HOP-62 > 100 µM | MOLT-4 26.2 µM | SF-539 > 100 µM | HL-60 30.1 µM

COc1ccc2c(c1)C=C(C(C)(C)C)NS2(=O)=O
inactive: TK-10 > 100 µM | UACC-257 > 100 µM | UACC-62 > 100 µM | SW-620 > 100 µM | CAKI-1 > 100 µM | COLO 205 > 100 µM | 786-0 > 100 µM | SK-MEL-28 > 100 µM | SN12C > 100 µM | K562 > 100 µM | SNB-75 > 100 µM | LOX IMVI > 100 µM | M14 > 100 µM | RXF 393 > 100 µM | Malme-3M > 100 µM | HOP-62 > 100 µM | MOLT-4 > 100 µM | SF-539 > 100 µM | HL-60 > 100 µM
